Reference: the NIST ThermoML archive (doi:10.1021/acs.jced.8b01250)
Numbers after ± are expanded uncertainties.

How the values were obtained:
[1] = Molar enthalpy of transition or fusion; details: Crystal; DSC
[2] = Crystal; DSC

With `N#Cc1cccc([N+](=O)[O-])c1C#N` [3-nitrophthalonitrile] the “Molar enthalpy of transition or fusion” value [1] was 4.59 ± 0.194 kcal/mol and the Triple point temperature [2] was 435.55 ± 1.2 K.
